# In ChEMBL document CHEMBL1136367, “Design and synthesis of novel benzofurans as a new class of antifungal agents targeting fungal N-myristoyltransferase. Part 3” (Bioorg Med Chem Lett, 2003):
# Experiments:
# [1] = Half life period was evaluated in rat plasma; type: ADME, organism-based
# [2] = Pharmacokinetic property when administered intravenously in rat at 2 mg/kg; type: ADME, organism-based; parameters: dose 2 mg/kg, route intravenous; details: in vivo, iv
# [3] = molecular target: Peptide N-myristoyltransferase (Aspergillus fumigatus); experiment: In vitro inhibitory activity against Aspergillus fumigatus Nmt (AfNmt) using substrate peptide GLTISKLFR-R-NH2 (0.5 uM) and myristoyl-CoA (0.5 uM)
# [4] = molecular target: Peptide N-myristoyltransferase (Candida albicans); experiment: In vitro inhibitory activity against Candida albicans Nmt (CaNmt) using substrate peptide GLTISKLFR-R-NH2 (0.5 uM) and myristoyl-CoA (0.5 uM)
# Candida albicans [5] = experiment: In vitro antifungal activity against Candida albicans (CY1002) in 80% calf serum; type: functional, organism-based
# [6] = molecular target: T1, Peptide N-myristoyltransferase (Homo sapiens, UniProt P30419+O60551); experiment: In vitro inhibitory activity against human Nmt (HsNmt) using 0.5 uM peptide GNAASAR-R-NH2 and 0.5 uM myristoyl-CoA; type: protein assay
# T1 sequence (P30419 whole entry): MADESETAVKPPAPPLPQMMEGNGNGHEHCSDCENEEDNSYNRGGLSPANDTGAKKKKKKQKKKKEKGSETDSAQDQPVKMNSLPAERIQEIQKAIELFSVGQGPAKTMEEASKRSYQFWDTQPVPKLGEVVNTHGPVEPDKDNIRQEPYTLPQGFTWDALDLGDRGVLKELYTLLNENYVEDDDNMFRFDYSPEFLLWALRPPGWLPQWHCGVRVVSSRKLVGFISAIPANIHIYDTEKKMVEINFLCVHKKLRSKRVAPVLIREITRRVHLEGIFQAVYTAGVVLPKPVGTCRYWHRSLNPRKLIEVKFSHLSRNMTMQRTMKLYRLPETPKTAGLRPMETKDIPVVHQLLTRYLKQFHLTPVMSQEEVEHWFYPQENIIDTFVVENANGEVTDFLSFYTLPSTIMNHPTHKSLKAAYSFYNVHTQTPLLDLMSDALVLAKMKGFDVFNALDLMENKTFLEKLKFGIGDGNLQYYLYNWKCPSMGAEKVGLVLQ
# T1 sequence (O60551 whole entry): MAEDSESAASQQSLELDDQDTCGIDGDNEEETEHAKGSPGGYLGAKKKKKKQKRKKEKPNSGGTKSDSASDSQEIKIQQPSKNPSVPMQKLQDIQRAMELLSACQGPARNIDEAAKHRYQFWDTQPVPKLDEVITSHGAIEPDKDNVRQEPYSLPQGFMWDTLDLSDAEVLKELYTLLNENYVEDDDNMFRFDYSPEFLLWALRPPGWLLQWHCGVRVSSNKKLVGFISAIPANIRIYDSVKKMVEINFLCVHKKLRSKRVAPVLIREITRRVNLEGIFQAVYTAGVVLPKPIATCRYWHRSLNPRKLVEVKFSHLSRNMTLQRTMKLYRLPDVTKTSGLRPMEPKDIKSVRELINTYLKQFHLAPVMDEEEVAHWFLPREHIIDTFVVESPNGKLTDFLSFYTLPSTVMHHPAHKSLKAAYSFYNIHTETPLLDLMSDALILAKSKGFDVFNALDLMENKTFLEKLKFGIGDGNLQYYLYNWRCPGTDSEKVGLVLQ
# Candida albicans [7] = experiment: In vitro antifungal activity against Candida albicans (CY1002) in YNBPB medium; type: functional, organism-based
# Rattus norvegicus [8] = species: Rattus norvegicus; experiment: Antifungal activity determined in rat infected with Candida albicans CY1002; type: functional
# [9] = molecular target: Peptide N-myristoyltransferase (Candida albicans); experiment: In vitro inhibitory activity against candida albicans Nmt (CaNmt) using substrate peptide GLTISKLFR-R-NH2 (0.5 uM) and myristoyl-CoA (0.5 uM)
# [10] = molecular target: Peptide N-myristoyltransferase (Aspergillus fumigatus); experiment: In vitro inhibitory activity against aspergillus fumigatus Nmt (AfNmt) using substrate peptide GLTISKLFR-R-NH2 (0.5 uM) and myristoyl-CoA (0.5 uM)
# Rattus norvegicus [11] = species: Rattus norvegicus; experiment: Antifungal activity determined in rat infected with Candida albicans CY1002.; type: functional
# Candida albicans [12] = experiment: In vitro antifungal activity against Candida albicans (CY1002) in YNBPB medium in rat; type: functional, organism-based
# Mus musculus = experiment: In vivo efficacy expressed as effective dose against murine systematic candidiasis model; type: functional
# [13] = molecular target: Peptide N-myristoyltransferase (Candida albicans); experiment: Inhibitory activity against Candida albicans Nmt (CaNmt) using substrate peptide GLTISKLFR-R-NH2 (0.5 uM) and myristoyl-CoA (0.5 uM)
# [14] = molecular target: Peptide N-myristoyltransferase (Candida albicans); experiment: In vitro inhibitory activity against Candida albicans Nmt (CaNmt) using substrate peptide GLTISKLFR-R-NH2 (0.5 uM) and myristoyl-CoA (0.5 uM); remark: listed apart in the source
Compound,half-life [1] [min],AUC [2] [ng·h/mL],IC50 [3] [nM],IC50 [4] [nM],IC50 (Candida albicans [5]) [nM],IC50 [6] [nM],IC50 (Candida albicans [7]) [nM],other results
OC(Cn1cncn1)(Cn1cncn1)c1ccc(F)cc1F [FLUCONAZOLE],240,19600,–,–,–,–,–,–
C=CCn1c(C(=O)c2oc3cccc(OCCCNCc4cccnc4)c3c2C)nc2ccccc21,48,570,5100,0.58,420,85000,48,ED50 (Rattus norvegicus [8]): 8.7 mg/kg
Cc1csc(C(=O)c2oc3cccc(OCCCNCc4cccnc4)c3c2C)n1,20.4,470,18000,2,740,130000,140,–
Cc1ccc(C(=O)c2oc3cccc(OCCCNCc4cccnc4)c3c2C)nc1,34.8,440,–,–,82,> 480000,–,IC50 [9]: 0.39 nM; IC50 [10]: 4100 nM; ED50 (Rattus norvegicus [11]): 15 mg/kg; IC50 (Candida albicans [12]): 36 nM
Cc1c(COc2ccc(F)c(F)c2F)oc2cccc(OCCCNCc3cccnc3)c12,120,–,–,–,–,–,–,ED50 (Mus musculus): 7.1 mg/kg
Cc1c(C(O)c2ccccn2)oc2cccc(OCCCNCc3cccnc3)c12 (stereo not given),–,–,–,–,–,–,–,IC50 [13]: 47 nM
Cc1c(Cc2ccccn2)oc2cccc(OCCCNCc3cccnc3)c12,–,–,–,–,–,–,–,IC50 [13]: 1900 nM
Cc1nc(C(=O)c2oc3cccc(OCCCNCc4cccnc4)c3c2C)sc1C,39,320,4300,0.71,190,83000,39,–
Cc1c(C(=O)c2nc3ccccc3n2C)oc2cccc(OCCCNCc3cccnc3)c12,35.4,450,13000,0.4,1200,94000,35,–
Cc1c(C(=O)c2cccnc2)oc2cccc(OCCCNCc3cccnc3)c12,–,–,–,–,–,–,–,IC50 [13]: 62 nM
Cc1c(C(=O)c2ccco2)oc2cccc(OCCCNCc3cccnc3)c12,–,–,150000,1400,25000,280000,4600,–
Cc1c(C(=O)c2nccs2)oc2cccc(OCCCNCc3cccnc3)c12,–,–,63000,91,8300,25000,540,–
Cc1c(C(=O)c2ccccn2)oc2cccc(OCCCNCc3cccnc3)c12,32.4,410,42000,–,470,340000,65,IC50 [14]: 3.5 nM
Cc1c(C(=O)c2nccn2C)oc2cccc(OCCCNCc3cccnc3)c12,27,530,–,–,3000,–,120,–
Cc1c(C(=O)c2nc3ccccc3n2C(C)C)oc2cccc(OCCCNCc3cccnc3)c12,51.6,810,480,1.3,2700,99000,19,–
Cc1c(C(=O)c2ncccc2C(F)(F)F)oc2cccc(OCCCNCc3cccnc3)c12,33.6,590,11000,43,5100,> 430000,340,–
Cc1c(C(=O)c2ccccc2)oc2cccc(OCCCNCc3cccnc3)c12,–,–,–,–,–,–,–,IC50 [13]: 1200 nM
